Laboratory results as given in patent US20250082656A1, “DOSAGE REGIMENS FOR TREATMENT OF DENGUE INFECTION” (Atea Pharmaceuticals, Inc., priority 2022, published 2025).

Key:
DENV2 NS5 [1] = biological target: T1, DENV2 NS5 (Dengue virus type 2, UniProt P14340); test: Nucleotide analogue incorporation / discrimination assay, DENV2 NS5; assay type: biochemical; settings: DENV2; GTP for AT-9010 and AT-9002, UTP for SOF-TP
Description: (§1) The chain-terminating efficiency of Compound 5 was measured in competitive nucleotide incorporation assays using all four DENV serotypes. […] In comparison, sofosbuvir triphosphate is incorporated into the RNA less than 1 time for every 100 UTP (native uridine triphosphate) incorporations.
The experimental procedure is provided in Example 10.
(§2) Measurements and quantitations were as in FIG. 19B.
DENV NS5 was preincubated with the annealed P10/T20 RNA in an assembly buffer containing 20 mM HEPES pH 7.5, 10% glycerol, 5 mM MgCl2 and 5 mM DTT for 10 min at 30° C. to create an active RNA elongation complex. Reactions were started by adding AT-9010 with either all four NTPs, or UTP, ATP and CTP only. […] Reactions were quenched at indicated timepoints in 2× volume FBD stop solution (formamide, 10 mM EDTA) and analysed on 20% acrylamide:bisacrylamide (19:1), […] sequencing gels. RNA products were visualized using a Typhoon FluorImager and analyzed using ImageQuant software.
(§3) DENV NS5 was pre-incubated with the annealed P10/T20 RNA in an assembly buffer containing 20 mM HEPES pH 7.5, 10% glycerol, 5 mM MgCl2, and 5 mM DTT for 10 min at 30° C. to create an active RNA elongation complex.
(§4) Reactions were started by adding AT-9010 with either all four NTPs or UTP, ATP, and CTP only.
(§5) Single nucleotide incorporation was tested as follows. Reactions were started by adding the corresponding NTP or analogue. Final concentrations were 1 μM NS5, 0.25 μM P10/T20, 100 μM NTP or analogue in a final buffer containing 20 mM HEPES pH 7.5, 15% glycerol, 5 mM MgCl2, and 5 mM DTT.
(§6) Reactions were quenched at the designated time points in 3× volume FBD stop solution (formamide, 10 mM EDTA) and analyzed on 20% acrylamide-bisacrylamide (19:1) […] sequencing gels. RNA products were visualized using a Typhoon FluorImager then analyzed and quantified using ImageQuant software.

DENV4 NS5 [2] = biological target: T2, DENV4 NS5 (Dengue virus type 4, UniProt P09866); test: Nucleotide analogue incorporation / discrimination assay, DENV4 NS5; assay type: biochemical; settings: GTP for AT-9010 and AT-9002, UTP for SOF-TP
Description: as §1
The nature of regular inserted Watson-Crick nucleotides is indicated in the right of the gel. […] Quantification of band-products greater in size than the G/AT (+5) band relative to the G/AT (+5) band were measured using a Typhoon FluorImager, and allowed to calculate the discrimination value. The incorporation rates for […] and AT9002 are compared to that of GTP, and to that of UTP in the case of SOF-TP.
as §2, §3, §4, §5, §6

DENV1 NS5 [3] = biological target: T3, DENV1 NS5 (Dengue virus type 1, UniProt P17763); test: Nucleotide analogue incorporation / discrimination assay, DENV1 NS5; assay type: biochemical; settings: GTP for AT-9010 and AT-9002, UTP for SOF-TP
Description: as §1, §2, §3, §4, §5, §6

DENV3 NS5 [4] = biological target: T4, DENV3 NS5 (Dengue virus type 3, UniProt Q6YMS4); test: Nucleotide analogue incorporation / discrimination assay, DENV3 NS5; assay type: biochemical; settings: GTP for AT-9010 and AT-9002, UTP for SOF-TP
Description: as §1, §2, §3, §4, §5, §6

[5] = system: human induced pluripotent stem cell (iPS) cardiomyocytes; test: Cardiomyocyte cytotoxicity assay (CellTiter Glo); settings: iPS cardiomyocytes, 3 days
[6] = system: NS5 RNA dependent RNA polymerase (RdRp); test: Competitive nucleotide incorporation assays, all four DENV serotypes (summary); assay type: biochemical, Dengue virus; settings: versus native uridine triphosphate
Description: As described in Example 10 and shown in FIG. 1, the active metabolite of Compound 2 or Compound 1 (Compound 5) acts as a GTP analog and is incorporated into RNA by the NS5 RNA dependent RNA polymerase (RdRp), immediately terminating synthesis.
as §1

[7] = system: granulocyte macrophage (GM) human bone marrow progenitor cells; test: Bone marrow progenitor cell assay, granulocyte macrophage (GM); settings: GM cell assay, 14 days, colonies counted
[8] = system: erythroid (E) human bone marrow progenitor cells; test: Bone marrow progenitor cell assay, erythroid (E); settings: E cell assay, 14 days, colonies counted
DENV1 NS5 [9] = biological target: T3, DENV1 NS5; test: Thermal shift assay, DENV1 NS5; settings: read-out: ΔTM
DENV2 MTase domain = DENV2 MTase domain (Dengue virus type 2, UniProt P14340); test: Thermal shift assay, DENV2 MTase domain; settings: read-out: ΔTM
DENV3 MTase domain = DENV3 MTase domain (Dengue virus type 3, UniProt Q6YMS4); test: Thermal shift assay, DENV3 MTase domain; settings: read-out: ΔTM
DENV2 RdRp domain = DENV2 RdRp domain (Dengue virus type 2, UniProt P14340); test: Thermal shift assay, DENV2 RdRp domain; settings: read-out: ΔTM
DENV3 NS5 [10] = biological target: T4, DENV3 NS5; test: Thermal shift assay, DENV3 NS5; settings: read-out: ΔTM
DENV1 MTase domain = DENV1 MTase domain (Dengue virus type 1, UniProt P17763); test: Thermal shift assay, DENV1 MTase domain; settings: read-out: ΔTM
DENV4 NS5 [11] = biological target: T2, DENV4 NS5; test: Thermal shift assay, DENV4 NS5; settings: read-out: ΔTM
DENV2 NS5 [12] = biological target: T1, DENV2 NS5; test: Thermal shift assay, DENV2 NS5; settings: read-out: ΔTM
DENV4 MTase domain = DENV4 MTase domain (Dengue virus type 4, UniProt P09866); test: Thermal shift assay, DENV4 MTase domain; settings: read-out: ΔTM
DENV4 RdRp domain = test: Thermal shift assay, DENV4 RdRp domain; settings: RdRp domain DENV4, 100 μM compound
DENV3 RdRp domain = test: Thermal shift assay, DENV3 RdRp domain; settings: RdRp domain DENV3, 100 μM compound
DENV1 RdRp domain = test: Thermal shift assay, DENV1 RdRp domain; settings: RdRp domain DENV1, 100 μM compound

T2 sequence (P09866 2488-3387): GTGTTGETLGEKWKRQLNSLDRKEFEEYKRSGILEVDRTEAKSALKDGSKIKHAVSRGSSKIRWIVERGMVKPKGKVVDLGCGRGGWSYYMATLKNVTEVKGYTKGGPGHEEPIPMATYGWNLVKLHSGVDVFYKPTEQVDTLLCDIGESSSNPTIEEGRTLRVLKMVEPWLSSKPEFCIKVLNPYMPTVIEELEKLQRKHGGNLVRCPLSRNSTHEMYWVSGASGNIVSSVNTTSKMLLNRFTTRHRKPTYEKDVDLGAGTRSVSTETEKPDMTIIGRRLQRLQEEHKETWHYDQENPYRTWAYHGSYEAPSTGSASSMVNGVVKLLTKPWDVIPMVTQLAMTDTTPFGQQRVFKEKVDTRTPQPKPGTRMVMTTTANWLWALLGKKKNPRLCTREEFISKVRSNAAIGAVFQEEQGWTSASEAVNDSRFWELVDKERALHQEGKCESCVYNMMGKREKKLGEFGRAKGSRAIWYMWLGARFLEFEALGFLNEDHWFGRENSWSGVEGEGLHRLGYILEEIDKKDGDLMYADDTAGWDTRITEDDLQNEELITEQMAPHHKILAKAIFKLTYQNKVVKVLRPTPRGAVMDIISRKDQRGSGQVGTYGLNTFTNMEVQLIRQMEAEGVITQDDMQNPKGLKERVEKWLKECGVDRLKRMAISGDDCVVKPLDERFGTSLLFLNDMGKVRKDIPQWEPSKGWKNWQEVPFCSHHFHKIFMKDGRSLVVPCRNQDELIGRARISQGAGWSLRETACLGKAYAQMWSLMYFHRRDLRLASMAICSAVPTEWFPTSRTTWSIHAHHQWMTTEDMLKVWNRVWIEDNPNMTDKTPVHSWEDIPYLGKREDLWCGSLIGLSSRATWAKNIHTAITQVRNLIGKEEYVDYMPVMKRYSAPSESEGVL
T3 sequence (P17763 2494-3392): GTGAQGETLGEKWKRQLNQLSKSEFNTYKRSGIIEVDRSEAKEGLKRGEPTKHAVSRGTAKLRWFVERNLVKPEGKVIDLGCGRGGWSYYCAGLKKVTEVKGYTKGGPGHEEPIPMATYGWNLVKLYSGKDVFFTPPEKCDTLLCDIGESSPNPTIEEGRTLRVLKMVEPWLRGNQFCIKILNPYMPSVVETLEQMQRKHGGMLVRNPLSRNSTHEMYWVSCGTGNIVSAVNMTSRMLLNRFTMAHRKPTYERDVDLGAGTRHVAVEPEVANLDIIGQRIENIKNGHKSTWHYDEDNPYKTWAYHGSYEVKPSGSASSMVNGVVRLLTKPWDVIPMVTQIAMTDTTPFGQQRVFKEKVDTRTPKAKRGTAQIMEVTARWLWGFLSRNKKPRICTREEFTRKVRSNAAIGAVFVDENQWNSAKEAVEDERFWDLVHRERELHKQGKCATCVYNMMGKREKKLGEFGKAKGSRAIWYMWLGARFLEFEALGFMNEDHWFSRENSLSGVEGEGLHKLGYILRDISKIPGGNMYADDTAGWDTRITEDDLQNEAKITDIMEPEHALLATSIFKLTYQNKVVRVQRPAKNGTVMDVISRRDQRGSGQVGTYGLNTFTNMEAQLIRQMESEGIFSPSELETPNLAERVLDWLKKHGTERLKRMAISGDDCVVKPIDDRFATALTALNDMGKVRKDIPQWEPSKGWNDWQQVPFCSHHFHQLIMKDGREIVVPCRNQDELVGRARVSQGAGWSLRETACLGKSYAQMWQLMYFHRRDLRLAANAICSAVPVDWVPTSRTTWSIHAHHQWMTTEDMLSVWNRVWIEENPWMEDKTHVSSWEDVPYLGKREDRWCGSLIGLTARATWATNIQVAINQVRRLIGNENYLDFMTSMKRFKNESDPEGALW
T4 sequence (Q6YMS4 2491-3390): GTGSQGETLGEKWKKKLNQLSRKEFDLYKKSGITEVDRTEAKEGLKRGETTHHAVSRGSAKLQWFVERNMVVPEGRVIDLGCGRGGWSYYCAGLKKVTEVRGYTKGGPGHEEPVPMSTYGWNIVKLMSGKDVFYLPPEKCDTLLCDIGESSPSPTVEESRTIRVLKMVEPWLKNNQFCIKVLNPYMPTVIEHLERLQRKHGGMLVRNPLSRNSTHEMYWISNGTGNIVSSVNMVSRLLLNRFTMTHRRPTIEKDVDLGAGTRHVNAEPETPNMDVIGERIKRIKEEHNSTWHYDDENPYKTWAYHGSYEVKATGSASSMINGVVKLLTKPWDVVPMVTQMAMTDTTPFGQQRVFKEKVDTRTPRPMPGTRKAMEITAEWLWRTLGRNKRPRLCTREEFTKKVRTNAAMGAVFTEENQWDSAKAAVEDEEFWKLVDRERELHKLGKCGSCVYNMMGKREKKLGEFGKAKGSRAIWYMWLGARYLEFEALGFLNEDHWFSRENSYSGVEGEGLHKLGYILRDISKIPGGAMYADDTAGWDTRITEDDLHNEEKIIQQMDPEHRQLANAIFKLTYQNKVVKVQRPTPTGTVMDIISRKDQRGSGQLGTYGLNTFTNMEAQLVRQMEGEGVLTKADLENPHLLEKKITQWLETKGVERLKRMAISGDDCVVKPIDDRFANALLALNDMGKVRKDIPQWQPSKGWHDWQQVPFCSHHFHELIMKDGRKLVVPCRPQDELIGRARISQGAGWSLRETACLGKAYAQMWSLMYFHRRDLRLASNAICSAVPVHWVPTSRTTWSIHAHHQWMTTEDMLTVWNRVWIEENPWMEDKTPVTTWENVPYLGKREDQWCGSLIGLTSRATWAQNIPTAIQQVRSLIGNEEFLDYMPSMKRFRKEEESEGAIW
DENV4 MTase domain, sequence (P09866 2489-2751): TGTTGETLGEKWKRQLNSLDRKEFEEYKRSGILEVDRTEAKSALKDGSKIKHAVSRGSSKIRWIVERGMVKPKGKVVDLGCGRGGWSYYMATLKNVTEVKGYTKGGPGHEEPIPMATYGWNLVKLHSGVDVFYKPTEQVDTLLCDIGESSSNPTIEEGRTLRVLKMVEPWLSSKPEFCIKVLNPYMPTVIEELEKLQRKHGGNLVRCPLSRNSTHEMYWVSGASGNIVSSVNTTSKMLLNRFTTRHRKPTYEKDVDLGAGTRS
DENV3 MTase domain, sequence (Q6YMS4 2492-2753): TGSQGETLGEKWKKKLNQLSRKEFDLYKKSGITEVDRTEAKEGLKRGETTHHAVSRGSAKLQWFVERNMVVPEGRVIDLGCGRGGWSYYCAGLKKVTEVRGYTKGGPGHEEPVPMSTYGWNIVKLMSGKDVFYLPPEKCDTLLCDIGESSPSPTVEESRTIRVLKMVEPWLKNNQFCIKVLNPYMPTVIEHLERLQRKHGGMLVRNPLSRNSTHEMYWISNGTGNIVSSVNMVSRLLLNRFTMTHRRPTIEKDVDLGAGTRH
DENV1 MTase domain, sequence (P17763 2495-2756): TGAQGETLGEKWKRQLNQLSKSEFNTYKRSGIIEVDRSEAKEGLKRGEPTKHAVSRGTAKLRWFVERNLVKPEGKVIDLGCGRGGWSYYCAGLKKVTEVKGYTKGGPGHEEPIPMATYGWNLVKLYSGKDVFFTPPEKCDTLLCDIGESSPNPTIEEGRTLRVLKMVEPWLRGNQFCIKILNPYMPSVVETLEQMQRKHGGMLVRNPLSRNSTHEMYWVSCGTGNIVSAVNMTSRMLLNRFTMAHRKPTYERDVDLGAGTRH

Row | Compound | Preference (discrimination) native nucleotide > analogue (DENV2 NS5 [1]) | Preference (discrimination) native nucleotide > analogue (DENV4 NS5 [2]) | Preference (discrimination) native nucleotide > analogue (DENV1 NS5 [3]) | Preference (discrimination) native nucleotide > analogue (DENV3 NS5 [4]) | ΔTm at 100 µM (DENV1 NS5 [9]) | ΔTm at 100 µM (DENV2 MTase domain) | ΔTm at 100 µM (DENV3 MTase domain) | ΔTm at 100 µM (DENV2 RdRp domain) | ΔTm at 100 µM (DENV3 NS5 [10]) | ΔTm at 100 µM (DENV1 MTase domain) | ΔTm at 100 µM (DENV4 NS5 [11]) | ΔTm at 100 µM (DENV2 NS5 [12]) | ΔTm at 100 µM (DENV4 MTase domain) | further results
1 | C[C@@]1(O)[C@H](O)[C@@H](COP(=O)(O)OP(=O)(O)OP(=O)(O)O)O[C@H]1n1cnc2c(=O)[nH]c(N)nc21 [AT-9002, 2′-methylguanosine triphosphate] | 18.2 ± 0.2 | 41.5 ± 7.3 | 19.4 ± 2.8 | 17.5 ± 1.5 | – | – | – | – | – | – | – | – | – | –
2 | COc1cc2nc(N3CCN(C(=O)C4COc5ccccc5O4)CC3)nc(N)c2cc1OC (stereo not drawn) [doxazosin, reference compound] | – | – | – | – | – | – | – | – | – | – | – | – | – | CC50 [5]: 7 µM
3 | sofosbuvir triphosphate [SOF-TP] | >100 | >100 | >100 | >100 | – | – | – | – | – | – | – | – | – | incorporations into the RNA for every 100 UTP incorporations [6]: less than 1
4 | Cc1cn([C@H]2C[C@H](N=[N+]=[N-])[C@@H](CO)O2)c(=O)[nH]c1=O [AZT, reference compound] | – | – | – | – | – | – | – | – | – | – | – | – | – | CC50 [7]: 2 µM; CC50 [8]: 3 µM
5 | Nc1ncnc2c1ncn2[C@@H]1O[C@H](C[C@@H](N)CC[C@H](N)C(=O)O)[C@@H](O)[C@H]1O [Sinefungin, sinefungin] | – | – | – | – | 1.2 ± 0.1 °C | 2.9 ± 0.1 °C | 2.1 ± 0.1 °C | -0.8 ± 0.1 °C | 1.8 ± 0.1 °C | 1.9 ± 0.1 °C | 1.4 ± 0.1 °C | 1.4 ± 0.1 °C | 2.8 ± 0.1 °C | –
6 | Nc1nc2c(ncn2[C@@H]2O[C@H](COP(=O)(O)OP(=O)(O)OP(=O)(O)O)[C@@H](O)[C@H]2O)c(=O)[nH]1 [GTP, guanosine triphosphate] | – | – | – | – | 5.8 ± 0.1 °C | 5.7 ± 0.1 °C | 4.1 ± 0.1 °C | 2.4 ± 0.1 °C | 4.8 ± 0.1 °C | 4.9 ± 0.1 °C | 3.9 ± 0.1 °C | 5.7 ± 0.1 °C | 4 ± 0.1 °C | ΔTM (DENV4 RdRp domain): 3.3 ± 0.1 °C; ΔTM (DENV3 RdRp domain): 2.2 ± 0.1 °C; ΔTM (DENV1 RdRp domain): 4.5±0.2 °C
